Data as given in PubChem BioAssay AID1259407 (Chemical Carcinogenesis Research Information System (CCRIS), 2018).
The source made the active and inactive calls. How the calls were made is not given here.

Tested on: CCRIS mutagenicity, Ames/micronucleus/aberration tests
Test: CCRIS mutagenicity studies
[1] = Test System: AMES SALMONELLA TYPHIMURIUM, Strain/Indicator: TA98, Metabolic Activation: NONE, Method: STANDARD PLATE
[2] = Test System: AMES SALMONELLA TYPHIMURIUM, Strain/Indicator: TA100, Metabolic Activation: NONE, Method: STANDARD PLATE
[3] = Test System: AMES SALMONELLA TYPHIMURIUM, Strain/Indicator: TA1535, Metabolic Activation: NONE, Method: STANDARD PLATE
[4] = Test System: AMES SALMONELLA TYPHIMURIUM, Strain/Indicator: TA98, Metabolic Activation: RAT, LIVER, S-9, AROCLOR 1254, Method: STANDARD PLATE

For `O=[N+]([O-])c1cccc2nscc12`, the mutagenic call [1] was “active; positive”, the mutagenic call (Test System: AMES SALMONELLA TYPHIMURIUM, Strain/Indicator: TA98, Metabolic Activation: S-9, Method: STANDARD PLATE) was “active; positive” and the mutagenic call [2] was “active; positive”. For the same compound, the mutagenic call (Test System: AMES SALMONELLA TYPHIMURIUM, Strain/Indicator: TA100, Metabolic Activation: S-9, Method: STANDARD PLATE (TEST MATERIAL SOLVENT:DMSO)) was “active; positive”, the mutagenic call [3] was “active; positive” and the mutagenic call (Test System: AMES SALMONELLA TYPHIMURIUM, Strain/Indicator: TA1535, Metabolic Activation: S-9, Method: STANDARD PLATE) was “inactive; negative”. The mutagenic call (Test System: AMES SALMONELLA TYPHIMURIUM, Strain/Indicator: TA1537, Metabolic Activation: NONE, Method: STANDARD PLATE) was “active; positive” and the mutagenic call (Test System: AMES SALMONELLA TYPHIMURIUM, Strain/Indicator: TA1537, Metabolic Activation: S-9, Method: STANDARD PLATE) was “inactive; negative”.

In the case of `CC(C)NCC(O)COc1cccc2[nH]c3ccccc3c12` (stereo unspecified), the mutagenic call [1] is reported as “inactive; negative”, the mutagenic call [4] is reported as “inactive; negative” and the mutagenic call [2] is reported as “inactive; negative”. For the same compound, the mutagenic call (Test System: AMES SALMONELLA TYPHIMURIUM, Strain/Indicator: TA100, Metabolic Activation: RAT, LIVER, S-9, AROCLOR 1254, Method: STANDARD PLATE) was “inactive; negative”.

`COc1cccc2c1C(=O)c1c(O)c3c(c(O)c1C2=O)C[C@@](O)(C(C)=O)C[C@@H]3O[C@H]1C[C@H](N)[C@H](O)[C@H](C)O1` was tested, and the mutagenic call (End Point: In vitro micronucleus, Test System: Human lymphoblastoid TK6 cells, Metabolic Activation: None) was “active; positive (p<0.001)”, the mutagenic call (Test System: AMES SALMONELLA TYPHIMURIUM, Strain/Indicator: GW257, Metabolic Activation: NONE, Method: STANDARD PLATE) was “active; positive” and the mutagenic call (Test System: AMES SALMONELLA TYPHIMURIUM, Strain/Indicator: TA97, Metabolic Activation: NONE, Method: STANDARD PLATE) was “inactive; negative”. The mutagenic call (Test System: AMES SALMONELLA TYPHIMURIUM, Strain/Indicator: TA98, Metabolic Activation: NONE, Method: PREINCUBATION) was “active; positive”, the mutagenic call [1] was “active; positive” and the mutagenic call [4] was “active; positive”. For the same compound, the mutagenic call (Test System: AMES SALMONELLA TYPHIMURIUM, Strain/Indicator: TA98, Metabolic Activation: RAT, LIVER, S-9, KC500 OR PHENOBARBITAL, Method: LIQUID SUSPENSION) was “active; positive”, the mutagenic call [2] was “active; positive” and the mutagenic call (Test System: AMES SALMONELLA TYPHIMURIUM, Strain/Indicator: TA100, Metabolic Activation: RAT, LIVER, S-9, KC500 OR PHENOBARBITAL, Method: LIQUID SUSPENSION) was “active; positive”. The mutagenic call (Test System: AMES SALMONELLA TYPHIMURIUM, Strain/Indicator: TA102, Metabolic Activation: NONE, Method: STANDARD PLATE) was “active; positive”, the mutagenic call (Test System: AMES SALMONELLA TYPHIMURIUM, Strain/Indicator: TA104, Metabolic Activation: NONE, Method: STANDARD PLATE) was “inactive; negative” and the mutagenic call [3] was “inactive; negative”. For the same compound, the mutagenic call (Test System: AMES SALMONELLA TYPHIMURIUM, Strain/Indicator: TA1538, Metabolic Activation: NONE, Method: STANDARD PLATE) was “active; positive”, the mutagenic call (Test System: AMES SALMONELLA TYPHIMURIUM, Strain/Indicator: TA1978/PKM101, Metabolic Activation: NONE, Method: STANDARD PLATE) was “active; positive” and the mutagenic call (Test System: AMES SALMONELLA TYPHIMURIUM, Strain/Indicator: TA1978, Metabolic Activation: NONE, Method: STANDARD PLATE) was “inactive; negative”. For the same compound, the mutagenic call (Test System: AMES SALMONELLA TYPHIMURIUM, Strain/Indicator: TA2637, Metabolic Activation: NONE, Method: STANDARD PLATE) was “active; positive”, the mutagenic call (Test System: AMES SALMONELLA TYPHIMURIUM, Strain/Indicator: TA2638, Metabolic Activation: NONE, Method: STANDARD PLATE) was “active; positive” and the mutagenic call (Test System: CHINESE HAMSTER V-79, Strain/Indicator: V-79/6-THIOGUANINE, Metabolic Activation: NONE, Method: SUSPENSION/PLATE) was “inactive; negative”. For the same compound, the mutagenic call (Test System: CHINESE HAMSTER V-79, Strain/Indicator: V-79/6-THIOGUANINE, Metabolic Activation: RAT, LIVER, HOMOGENATE, Method: SUSPENSION/PLATE) was “inactive; negative”, the mutagenic call (Test System: CHINESE HAMSTER V-79, Strain/Indicator: V-79/8-AZAGUANINE, Metabolic Activation: NONE, Method: STANDARD PLATE) was “active; positive” and the mutagenic call (Test System: E. COLI, Strain/Indicator: WP2 (HCR), Metabolic Activation: NONE, Method: STANDARD PLATE) was “inactive; negative”. The mutagenic call (Test System: E. COLI, Strain/Indicator: WP2 (PKM101), Metabolic Activation: NONE, Method: STANDARD PLATE) was “active; positive”, the mutagenic call (Test System: E. COLI, Strain/Indicator: WP2 UVRA (PKM101), Metabolic Activation: NONE, Method: STANDARD PLATE) was “active; positive” and the mutagenic call (Test System: UDS RAT HEPATOCYTES, Strain/Indicator: THY INCORP, Metabolic Activation: NONE, Method: AUTOMATIC COLONY COUNTER) was “active; positive”.
